The text below walks through data of patent publication US6825340B2, “Methods and reagents for inactivating ribonucleases” (Ambion, Inc., priority 1998, dated 2004).

Test [1] deals with AMV reverse transcriptase. Put plainly: Reverse transcription reaction (RETROscript kit), dCTP[α-32P] incorporation. It counts as biochemical. As to conditions: 20 mM reducing reagent. On the procedure: (§1) FIG. 2. […] Reverse transcriptions were performed using the RETROscript™ kit (Ambion, Inc.). Mouse total RNA in DEPC-treated water was reverse transcribed with either MMLV or AMV reverse transcriptase in the presence or absence of 20 mM DTT. dCTP[α^32P] was included in the reactions to measure the efficiency of reverse transcription. Following incubation at 42° C. for 1 h, 5 μl of each reaction was subjected to TCA precipitation to measure the amount of dCTP[α^32P] incorporated into cDNA by reverse transcription.
(§2) The reverse transcription reactions were performed using the RETROscript™ kit (Ambion, Inc.). The following were assembled with or without 20 mM of the reducing reagents in a final volume of 19 μl: dNTPs (0.5 mM each), oligo dT (5 μM), 0.4 μl dCTP[α-^32p] (3000 Ci/mmol), 10 mM Tris-HCl (pH 8.3): 50 mM KCl: 1.5 mM MgCl2, mouse brain total RNA (4 μg). The reaction mixtures were incubated at 65° C. for 10 minutes. 1 μl (100 units) of AMV or MMLV reverse transcriptase were added and then the reactions were incubated at 42° C. for 1 hour. Reverse transcription by either enzyme was not inhibited by DTT (FIG. 2) or by DTE or β-mercaptoethanol.

The target in test [2] is T1, MMLV reverse transcriptase (Moloney murine leukemia virus, UniProt P03355).
T1 construct: purchased Ambion, Inc
The description is as above. The note with it: 20 mM reducing reagent. The test is classed as biochemical. The procedure:
as §1, §2

Test [3] relates to RNase mixture (RNase A, RNase 1, RNase T1). Put plainly: Non-isotopic RNase inactivation assay (mouse total RNA, agarose gel). It counts as biochemical, human, E. coli and a fungus. The text has this:
The inventors routinely perform assays on RNA designed to assess RNase activity in a sample. Two different assays are typically used for the detection of ribonuclease activity, non-isotopic and isotopic. […] In both assays, the inactivation process is typically performed on a mixture of three different ribonucleases: RNase A, RNase 1, and RNase T1. Each ribonuclease is purified from a different species: […], E. coli and a fungus, respectively. The three RNases are very different from each other in their origin, substrate specificity and protein sequence. In this way, the inactivation process can test three completely different but well characterized ribonucleases. The standard stock RNase mixture employed in the following examples is prepared by combining 1 μl RNase 1 (100 U/μl; Ambion), 1 μl RNase cocktail (RNase A, 0.5 U/μl; RNase T1, 20 U/μl, Ambion) and 98 μl water. The non-isotopic assay uses total RNA isolated from mouse as the substrate for the RNase mixture. […] A quantity of 4 μg of total RNA isolated from mouse liver or brain was dissolved in an aqueous solution, usually water or 1 mM sodium citrate (pH 6.6). The treated ribonuclease sample was added to the total RNA and then incubated at 37° C. for 1 or 16 hours, depending on the sensitivity desired for the assay. After incubation, the RNA was fractionated in a formaldehyde 1% agarose gel. The RNA was detected by staining with ethidium bromide and then illuminating the gel with ultraviolet light. The RNA fluoresces in the gel. Untreated total RNA was also fractionated as a control with the test samples for comparative purposes. […] Intact total RNA has two major bands produced by the 28S and 18S ribosomal RNA. […] The RNase cocktail was made to various concentrations in different buffers in different DTT concentrations and incubated at 37° C. or 60° C. for 20 minutes. Total mouse RNA was added to the treated RNase mixture and incubated at 37° C. for one hour, fractionated in a formaldehyde denaturing 1% agarose gel and the RNA visualized by ethidium bromide staining and UV fluorescence.

In another test the target is T2, T3 RNA polymerase (Enterobacteria phage T3, UniProt P07659).
T2 construct: purchased Ambion, Inc
Nature of the test: In vitro transcription reaction (MAXIscript kit), UTP[α-32P] incorporation. As to conditions: 20 mM reducing reagent. The test is classed as biochemical. On the procedure:
(§3) FIG. 3. […] Transcriptions were performed with T7, T3 and SP6 RNA polymerase in the presence and absence of 20 mM DTT. For each RNA polymerase reaction, pTRI-Xef DNA was the template and UTP[α^32P] was included to measure the efficiency of transcription. Duplicates were performed for each reaction. TCA precipitations were performed on each transcription reaction to measure the percent of the UTP[α^32P] incorporated into RNA.
(§4) The transcription reactions were based on the MAXIscript™ transcription kit (Ambion, Inc.). The following were assembled with or without 20 mM reducing reagent in a final volume of 18 μl: NTPs (0.5 mM each), 1 μg linearized DNA template, 2 μl 10 × transcription buffer, and 0.2 μl UTP [α-^32P] (800 Ci/mmol). The reaction mixtures were incubated 60° C. for 10 minutes and then 2 μl of the either SP6, T7 or T3 RNA polymerase (10 units/μl) were added to the reactions, incubated 30° C. for 60 minutes and then TCA precipitated to assess the incorporation of the radioactive label.

For another test, the target named is T3, T7 RNA polymerase (Escherichia phage T7, UniProt P00573).
T3 construct: purchased Ambion, Inc
Described as above. As to conditions: 20 mM reducing reagent. The test is classed as biochemical. The procedure:
as §3, §4

For the next test, the target named is T4, SP6 RNA polymerase (Enterobacteria phage SP6, UniProt P06221).
T4 construct: purchased Ambion, Inc
T4 sequence (P06221 1-874): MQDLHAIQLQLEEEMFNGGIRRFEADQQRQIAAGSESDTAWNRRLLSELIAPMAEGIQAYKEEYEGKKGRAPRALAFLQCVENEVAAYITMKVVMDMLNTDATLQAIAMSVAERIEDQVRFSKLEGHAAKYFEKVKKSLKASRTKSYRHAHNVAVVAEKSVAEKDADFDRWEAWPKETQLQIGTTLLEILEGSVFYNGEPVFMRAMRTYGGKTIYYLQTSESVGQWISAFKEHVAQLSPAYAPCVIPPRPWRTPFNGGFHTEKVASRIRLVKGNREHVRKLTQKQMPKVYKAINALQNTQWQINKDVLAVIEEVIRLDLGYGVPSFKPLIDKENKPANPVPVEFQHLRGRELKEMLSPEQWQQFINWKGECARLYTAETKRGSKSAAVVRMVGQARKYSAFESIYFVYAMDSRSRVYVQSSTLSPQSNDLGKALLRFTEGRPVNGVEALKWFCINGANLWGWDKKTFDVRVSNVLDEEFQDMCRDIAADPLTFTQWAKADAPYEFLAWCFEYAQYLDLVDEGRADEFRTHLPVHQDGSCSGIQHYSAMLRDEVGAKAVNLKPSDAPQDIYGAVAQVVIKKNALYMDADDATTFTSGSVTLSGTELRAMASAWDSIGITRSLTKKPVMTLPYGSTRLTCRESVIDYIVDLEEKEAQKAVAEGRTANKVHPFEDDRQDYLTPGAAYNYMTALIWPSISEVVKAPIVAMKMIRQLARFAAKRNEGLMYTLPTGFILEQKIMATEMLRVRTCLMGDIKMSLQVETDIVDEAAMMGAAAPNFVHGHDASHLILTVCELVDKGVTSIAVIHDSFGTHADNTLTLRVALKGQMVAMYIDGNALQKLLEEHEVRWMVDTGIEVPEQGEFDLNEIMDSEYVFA
The description is as above. It counts as biochemical. The note with it: 20 mM reducing reagent. On the procedure: as §3, §4

Another test addresses DNase I (Bos taurus, UniProt P00639). Put plainly: DNase I activity after reducing/heat treatment, plasmid DNA degradation. The test is classed as biochemical. The note with it: 20 mM reducing reagent in water; DNase I 0.4 units/μl; 60° C. for 20 minutes. On the procedure: DNase I is commonly used to degrade contaminating DNA in RNA preparations. To test whether the inactivation method affected DNase I activity, DNase I (final concentration of 0.4 units/μl) was added to water containing 20 mM DTT, DTE or β-mercaptoethanol. The mixture was incubated at 60° C. for 20 minutes. After the heat treatment, the DNase I activity was tested by incubating the treated DNase I with plasmid DNA (0.2 μg/μl ) at 37° C. for one hour followed by electrophoresis in a 1% agarose gel.

[4] abbreviates: reducing reagent 20 mM, RNase mixture 200 ng/ml, 60° C. for 20 minutes.

SMILES strings stand for the structures.

T3 sequence (P00573 whole entry): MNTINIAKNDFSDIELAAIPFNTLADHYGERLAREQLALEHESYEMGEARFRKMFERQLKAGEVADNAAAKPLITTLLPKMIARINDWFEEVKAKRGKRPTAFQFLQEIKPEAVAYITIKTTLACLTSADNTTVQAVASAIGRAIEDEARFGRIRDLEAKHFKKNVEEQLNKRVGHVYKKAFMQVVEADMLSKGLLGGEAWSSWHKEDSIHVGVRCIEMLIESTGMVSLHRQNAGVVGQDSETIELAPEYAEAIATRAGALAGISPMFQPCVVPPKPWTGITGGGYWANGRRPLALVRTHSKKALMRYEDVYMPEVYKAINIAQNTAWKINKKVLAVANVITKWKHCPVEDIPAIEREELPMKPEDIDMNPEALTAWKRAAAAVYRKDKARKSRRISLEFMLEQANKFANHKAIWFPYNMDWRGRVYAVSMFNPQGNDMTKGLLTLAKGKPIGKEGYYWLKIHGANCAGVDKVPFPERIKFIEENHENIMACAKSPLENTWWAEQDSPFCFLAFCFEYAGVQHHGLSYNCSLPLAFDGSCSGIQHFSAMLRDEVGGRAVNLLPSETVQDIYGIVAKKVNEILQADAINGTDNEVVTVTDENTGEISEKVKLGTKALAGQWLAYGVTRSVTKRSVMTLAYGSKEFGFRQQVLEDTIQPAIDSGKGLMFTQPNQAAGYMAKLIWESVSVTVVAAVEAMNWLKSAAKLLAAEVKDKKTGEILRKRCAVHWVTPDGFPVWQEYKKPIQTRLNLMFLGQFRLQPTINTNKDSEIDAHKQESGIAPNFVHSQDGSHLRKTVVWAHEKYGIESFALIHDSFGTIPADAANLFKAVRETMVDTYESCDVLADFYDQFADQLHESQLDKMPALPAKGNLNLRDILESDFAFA
T2 sequence (P07659 whole entry): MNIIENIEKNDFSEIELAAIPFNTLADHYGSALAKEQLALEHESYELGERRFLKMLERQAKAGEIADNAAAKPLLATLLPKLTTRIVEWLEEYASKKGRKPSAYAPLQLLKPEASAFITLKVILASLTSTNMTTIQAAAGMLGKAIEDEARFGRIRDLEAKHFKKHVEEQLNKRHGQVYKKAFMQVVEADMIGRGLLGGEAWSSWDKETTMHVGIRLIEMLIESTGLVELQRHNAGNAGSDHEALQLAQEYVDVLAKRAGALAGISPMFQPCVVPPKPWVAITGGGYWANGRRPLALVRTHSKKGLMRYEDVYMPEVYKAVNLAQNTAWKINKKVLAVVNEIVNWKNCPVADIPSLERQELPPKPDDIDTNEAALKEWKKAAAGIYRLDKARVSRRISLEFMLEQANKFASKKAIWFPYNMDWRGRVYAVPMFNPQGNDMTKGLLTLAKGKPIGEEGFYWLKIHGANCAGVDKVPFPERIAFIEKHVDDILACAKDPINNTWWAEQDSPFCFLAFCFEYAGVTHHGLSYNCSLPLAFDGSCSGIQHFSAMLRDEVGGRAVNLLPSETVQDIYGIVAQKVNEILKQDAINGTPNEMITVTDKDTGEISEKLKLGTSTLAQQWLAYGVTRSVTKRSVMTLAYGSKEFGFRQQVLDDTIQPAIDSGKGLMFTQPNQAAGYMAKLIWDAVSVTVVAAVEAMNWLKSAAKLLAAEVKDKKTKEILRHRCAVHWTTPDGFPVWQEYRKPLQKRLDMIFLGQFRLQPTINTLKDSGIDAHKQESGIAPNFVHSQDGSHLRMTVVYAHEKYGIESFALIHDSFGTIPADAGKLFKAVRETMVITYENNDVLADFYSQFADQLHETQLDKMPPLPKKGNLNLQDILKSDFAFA
DNase I, sequence (P00639 23-282): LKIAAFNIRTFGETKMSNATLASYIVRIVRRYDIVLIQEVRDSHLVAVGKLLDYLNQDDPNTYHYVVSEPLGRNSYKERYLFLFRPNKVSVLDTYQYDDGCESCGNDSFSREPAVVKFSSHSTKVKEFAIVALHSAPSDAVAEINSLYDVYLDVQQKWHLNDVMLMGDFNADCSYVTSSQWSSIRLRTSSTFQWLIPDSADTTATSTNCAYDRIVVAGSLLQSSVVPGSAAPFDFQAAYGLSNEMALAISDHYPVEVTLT

In the case of `O[C@H](CS)[C@@H](O)CS` [DTE, dithioerythritol], the “inhibition of reverse transcription by AMV reverse transcriptase” value in test [1] was “not inhibited”. Moreover, the “inhibition of reverse transcription by MMLV reverse transcriptase” value in test [2] is listed as “not inhibited”. For the same compound, the RNase mixture inactivation entry in test [3] (setting [4]) was “inactivate RNase activity completely”. Moreover, the “inhibition of T3 RNA polymerase transcription” value on T3 RNA polymerase is “None of the three polymerases were inhibited”. Also, the “inhibition of T7 RNA polymerase transcription” value at T7 RNA polymerase is “None of the three polymerases were inhibited”. In addition, the “inhibition of SP6 RNA polymerase transcription” value against SP6 RNA polymerase is given as “None of the three polymerases were inhibited”. Moreover, the “DNase I activity after reducing/heat treatment” value at DNase I was “not affected”.

With `N[C@@H](CS)C(=O)O` [cysteine], the RNase mixture inactivation entry in test [3] (10 mM cysteine, RNase mixture 200 ng/ml, 1 mM sodium citrate (pH 6.4), 68° C. for 20 minutes) is given as “inactivated”; in test [3] (20 mM cysteine, RNase mixture 200 ng/ml, 1 mM sodium citrate (pH 6.4), 68° C. for 20 minutes), “inactivated”; in test [3] (40 mM cysteine, RNase mixture 200 ng/ml, 1 mM sodium citrate (pH 6.4), 68° C. for 20 minutes), “inactivated”; in test [3] (60 mM cysteine, RNase mixture 200 ng/ml, 1 mM sodium citrate (pH 6.4), 68° C. for 20 minutes), “inactivated”.

On to `OC1CSSCC1O` (stereo not shown) [oxidized DTT], for which the RNase mixture inactivation result in test [3] (heated DTT diluted to 20 mM, RNase mixture 200 ng/ml in water, 60° C. for 20 minutes) is “did not inactivate”.

Consider `OCCS` [β-mercaptoethanol], for which the “inhibition of reverse transcription by AMV reverse transcriptase” value in test [1] was “not inhibited”. For the same compound, the “inhibition of reverse transcription by MMLV reverse transcriptase” value in test [2] is “not inhibited”. Moreover, the RNase mixture inactivation entry in test [3] (setting [4]) is listed as “inactivate RNase activity completely”. Moreover, the “inhibition of T3 RNA polymerase transcription” value against T3 RNA polymerase is listed as “None of the three polymerases were inhibited”. The “inhibition of T7 RNA polymerase transcription” value against T7 RNA polymerase was “None of the three polymerases were inhibited”. Besides, the “inhibition of SP6 RNA polymerase transcription” value on SP6 RNA polymerase is on record as “None of the three polymerases were inhibited”. At DNase I, the “DNase I activity after reducing/heat treatment” value is given as “not affected”.
